A word on the half-life: it is the time needed for the level to fall by half in the phase considered. What is called fraction unbound is the share of the substance not bound to proteins or other matrix. One may read the IC50 as the midpoint of a concentration-inhibition curve. Read a low IC50 as inhibition by little substance. A word on the Tmax: it is the time at which the peak concentration occurs. As usually defined, the clearance is the volume of plasma or blood freed of the substance per unit of time. As usually defined, the inhibition is the drop in the measured response relative to a control, in per cent.

This is an account of results in ChEMBL document CHEMBL6083275, “Discovery and evaluation of HW161023 as a potent and orally active AAK1 inhibitor” (Bioorg Med Chem Lett, 2024).

A short description of data set [1]: Half-life in C57BL/6J mouse at 1 mg/kg, iv. It counts as ADME, organism-based. The following applies: in vivo.
The nature of data set [2]: Metabolic stability in mouse liver microsomes assessed as half-life. It counts as ADME, Microsome. On the technique in general: Liver microsomes are a subcellular fraction often used to study metabolism.
Data set [3] in a line: Protein binding in human plasma assessed as unbound fraction. It counts as ADME, cell-free.
Data set [4] in a line: Protein binding in mouse plasma assessed as unbound fraction. It counts as ADME, cell-free.
Data set [5] is described as follows: Protein binding in rat plasma assessed as unbound fraction. The class given is ADME, cell-free.
The target of data set [6] is Voltage-gated inwardly rectifying potassium channel KCNH2 (Homo sapiens, UniProt Q12809). Nature of the data set: Inhibition of human ERG by patch clamp assay. The class given is toxicity. In general terms: Patch clamp records ionic current or voltage across a cell membrane.
Chain of Voltage-gated inwardly rectifying potassium channel KCNH2 (Q12809 whole entry): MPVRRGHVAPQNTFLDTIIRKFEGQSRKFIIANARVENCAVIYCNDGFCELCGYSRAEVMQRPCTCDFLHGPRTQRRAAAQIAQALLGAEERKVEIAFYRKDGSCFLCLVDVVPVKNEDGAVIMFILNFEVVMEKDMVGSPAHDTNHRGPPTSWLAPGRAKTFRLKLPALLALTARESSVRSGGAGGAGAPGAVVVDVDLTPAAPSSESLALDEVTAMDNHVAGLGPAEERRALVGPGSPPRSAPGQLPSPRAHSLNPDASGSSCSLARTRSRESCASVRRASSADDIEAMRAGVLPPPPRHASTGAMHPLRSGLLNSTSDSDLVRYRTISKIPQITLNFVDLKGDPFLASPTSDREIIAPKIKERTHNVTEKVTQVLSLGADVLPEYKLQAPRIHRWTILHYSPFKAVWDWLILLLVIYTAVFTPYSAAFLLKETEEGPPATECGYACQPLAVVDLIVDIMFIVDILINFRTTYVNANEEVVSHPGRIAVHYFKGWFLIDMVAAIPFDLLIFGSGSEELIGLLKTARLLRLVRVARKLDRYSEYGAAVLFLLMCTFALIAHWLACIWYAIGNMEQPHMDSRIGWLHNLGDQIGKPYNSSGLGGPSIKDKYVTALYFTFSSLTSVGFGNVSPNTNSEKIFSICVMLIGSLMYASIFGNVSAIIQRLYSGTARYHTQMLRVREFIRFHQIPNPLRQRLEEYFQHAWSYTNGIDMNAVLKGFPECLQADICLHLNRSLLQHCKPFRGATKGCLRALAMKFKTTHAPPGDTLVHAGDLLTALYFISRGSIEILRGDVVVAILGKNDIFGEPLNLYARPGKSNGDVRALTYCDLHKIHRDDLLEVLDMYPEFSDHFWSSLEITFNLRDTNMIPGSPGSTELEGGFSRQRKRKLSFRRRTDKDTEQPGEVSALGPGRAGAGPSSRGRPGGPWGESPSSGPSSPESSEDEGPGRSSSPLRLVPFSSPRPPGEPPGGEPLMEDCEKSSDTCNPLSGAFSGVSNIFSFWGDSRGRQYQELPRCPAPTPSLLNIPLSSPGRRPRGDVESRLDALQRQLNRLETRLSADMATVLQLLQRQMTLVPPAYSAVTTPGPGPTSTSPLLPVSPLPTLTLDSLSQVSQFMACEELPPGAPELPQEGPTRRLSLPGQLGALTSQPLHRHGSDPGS
A short description of data set [7]: Cytotoxicity against human HepG2 cells. It counts as toxicity, cell-based.
Data set [8] in a line: Metabolic stability in hepatocytes (unknown origin) assessed as half-life. It counts as ADME, cell-based, Hepatocyte.
A short description of data set [9]: Tmax in rat at 10 mg/kg, po. It counts as ADME, organism-based. The following applies: in vivo.
A short description of data set [10]: Oral bioavailability in rat at 10 mg/kg. It counts as ADME, organism-based. The following applies: in vivo.
The nature of data set [11]: Half-life in rat at 1 mg/kg, iv. It counts as ADME, organism-based. The following applies: in vivo.
Data set [12] in a line: Apparent volume of distribution in dog at 1 mg/kg, iv. It counts as ADME, organism-based, Canis lupus familiaris. The following applies: in vivo, read-out: Vz.
Data set [13] is described as follows: Half-life in dog at 1 mg/kg, iv. It counts as ADME, organism-based, Canis lupus familiaris. The following applies: in vivo.
Data set [14] can be described thus: Clearance in dog at 1 mg/kg, iv. It counts as ADME, organism-based, Canis lupus familiaris. The following applies: in vivo.
For data set [15], the target named is MAP kinase-interacting serine/threonine-protein kinase 1 (Homo sapiens) (UniProt Q9BUB5). Nature of the data set: Inhibition of wildtype MNK1 (unknown origin) at 1 uM relative to control.
Chain of MAP kinase-interacting serine/threonine-protein kinase 1 (Homo sapiens) (Q9BUB5 whole entry, looked up): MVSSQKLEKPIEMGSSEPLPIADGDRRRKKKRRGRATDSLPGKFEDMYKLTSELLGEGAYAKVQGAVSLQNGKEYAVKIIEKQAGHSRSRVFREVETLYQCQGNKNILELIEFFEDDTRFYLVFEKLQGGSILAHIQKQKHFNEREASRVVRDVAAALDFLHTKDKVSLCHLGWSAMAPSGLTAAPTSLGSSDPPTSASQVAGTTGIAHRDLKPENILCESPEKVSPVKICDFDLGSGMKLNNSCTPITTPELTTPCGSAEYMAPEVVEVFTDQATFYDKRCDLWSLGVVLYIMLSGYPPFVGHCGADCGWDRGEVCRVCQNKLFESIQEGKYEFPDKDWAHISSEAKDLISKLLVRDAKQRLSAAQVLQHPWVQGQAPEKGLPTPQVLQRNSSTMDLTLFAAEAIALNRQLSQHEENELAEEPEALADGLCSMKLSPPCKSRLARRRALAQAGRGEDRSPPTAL
Data set [16] has as its target MAP kinase-interacting serine/threonine-protein kinase 2 (Homo sapiens) (UniProt Q9HBH9). Nature of the data set: Inhibition of wildtype MNK2 (unknown origin) at 1 uM relative to control.
In data set [17] the target is Citron Rho-interacting kinase (Homo sapiens) (UniProt O14578). The data set is described as follows: Inhibition of wildtype CRIK (unknown origin) at 1 uM relative to control.
In data set [18] the target is BMP-2-inducible protein kinase (Homo sapiens) (UniProt Q9NSY1). Nature of the data set: Inhibition of wildtype BIKE (unknown origin) at 1 uM relative to control.
Chain of BMP-2-inducible protein kinase (Homo sapiens) (Q9NSY1 whole entry, looked up): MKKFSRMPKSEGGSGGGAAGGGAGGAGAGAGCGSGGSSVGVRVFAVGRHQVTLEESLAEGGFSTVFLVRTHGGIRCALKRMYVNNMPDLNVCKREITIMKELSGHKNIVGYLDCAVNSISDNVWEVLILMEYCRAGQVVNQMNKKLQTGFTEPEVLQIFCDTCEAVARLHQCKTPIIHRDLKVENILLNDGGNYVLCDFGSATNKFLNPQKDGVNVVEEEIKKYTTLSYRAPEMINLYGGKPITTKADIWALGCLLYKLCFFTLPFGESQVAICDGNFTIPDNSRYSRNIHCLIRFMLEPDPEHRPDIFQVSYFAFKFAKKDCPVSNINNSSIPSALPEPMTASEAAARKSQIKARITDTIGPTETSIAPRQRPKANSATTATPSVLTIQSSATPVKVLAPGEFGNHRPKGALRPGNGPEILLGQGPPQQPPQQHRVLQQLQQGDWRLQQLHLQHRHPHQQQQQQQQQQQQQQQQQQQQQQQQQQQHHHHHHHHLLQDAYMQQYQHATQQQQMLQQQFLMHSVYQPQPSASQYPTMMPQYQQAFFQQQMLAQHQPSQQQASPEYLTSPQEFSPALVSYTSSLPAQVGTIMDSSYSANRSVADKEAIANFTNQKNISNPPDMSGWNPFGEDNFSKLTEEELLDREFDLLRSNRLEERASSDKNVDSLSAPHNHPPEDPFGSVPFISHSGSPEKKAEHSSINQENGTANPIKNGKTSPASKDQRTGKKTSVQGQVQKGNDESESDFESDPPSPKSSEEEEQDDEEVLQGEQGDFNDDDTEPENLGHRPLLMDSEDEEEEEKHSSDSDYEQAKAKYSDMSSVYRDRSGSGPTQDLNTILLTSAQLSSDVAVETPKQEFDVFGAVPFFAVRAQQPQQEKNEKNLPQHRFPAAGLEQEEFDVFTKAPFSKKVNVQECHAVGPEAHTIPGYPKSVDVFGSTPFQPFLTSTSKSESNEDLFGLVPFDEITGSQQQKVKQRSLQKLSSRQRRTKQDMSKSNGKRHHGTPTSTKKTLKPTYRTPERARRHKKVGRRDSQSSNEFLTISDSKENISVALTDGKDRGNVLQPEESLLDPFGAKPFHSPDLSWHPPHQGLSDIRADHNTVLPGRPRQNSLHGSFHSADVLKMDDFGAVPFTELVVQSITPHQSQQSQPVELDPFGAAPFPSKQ

Chain of MAP kinase-interacting serine/threonine-protein kinase 2 (Homo sapiens) (Q9HBH9 whole entry, looked up): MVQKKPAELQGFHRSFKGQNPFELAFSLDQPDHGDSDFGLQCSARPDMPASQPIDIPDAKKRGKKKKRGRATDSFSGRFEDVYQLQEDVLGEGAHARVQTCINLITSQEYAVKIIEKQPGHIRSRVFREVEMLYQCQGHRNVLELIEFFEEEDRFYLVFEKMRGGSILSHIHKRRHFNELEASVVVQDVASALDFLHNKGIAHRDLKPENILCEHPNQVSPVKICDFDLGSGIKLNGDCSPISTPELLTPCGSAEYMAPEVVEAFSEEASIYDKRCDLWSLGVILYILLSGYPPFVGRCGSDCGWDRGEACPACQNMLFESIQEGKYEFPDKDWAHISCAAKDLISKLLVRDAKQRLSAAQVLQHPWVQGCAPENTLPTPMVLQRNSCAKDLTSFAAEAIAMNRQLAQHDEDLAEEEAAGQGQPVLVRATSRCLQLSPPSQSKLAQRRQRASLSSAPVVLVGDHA

Regarding `CC(C)C[C@](C)(N)COc1ccc(-c2ccnc(C(F)F)c2)c2nccn12`, the half-life in [1] was 17 h; in data set [2], 0.717 h; in data set [8] it was 46.4 h; in [11], 10.3 h; in data set [13] it was 3.3 h. Besides, the values for the fraction unbound in data set [3], in data set [4] and in [5] were 0.193, 0.128 and 0.185, respectively. Besides, the IC50 turned out to be 11.9 µM in [6] and 51 µM in data set [7]. Also, the time to peak (Tmax) in data set [9] is 5.3 h. Moreover, the bioavailability in data set [10] came to 118%. In data set [12], the Vd is 14 L/kg. Also, the clearance in data set [14] was 48.3 mL/min/kg. The inhibition in data set [15] is 91%; in [16], 88%; in data set [17] it was 60%; in data set [18] it was 39%.
